Measured values taken from patent publication US9556132B2, “Tetrazole derivatives and their use as potassium channel modulators” (SANIONA A/S, priority 2012, dated 2017).

Target: human IK (Homo sapiens (Human), UniProt O15554)
Test: Inhibition of IK channels expressed in HEK293 cells, thallium (I) sensitive FLIPR assay
Type: cell-based
Details: HEK293 cells over-expressing human IK; Tl+-sensitive BTC fluorescence (FLIPR); inhibition of activity induced by Ca2+-ionophore A23187
Method: Following experiment determines the ability of a test compound to inhibit the activity of IK channels heterologously expressed in human HEK293 cells, and was used as the primary screen. The ability is determined as per cent inhibition of the activity induced by addition of the Ca^2+-ionophore A23187 (considered a maximum response). The activity is determined using a standard thallium (I) sensitive assay, e.g. using a fluorometric method in a Fluorescent Image Plate Reader (FLIPR) as described below in more detail.
Full concentration/response curves are generated and IC50 values are calculated based on the degree of inhibition of the maximum response. IC50 values (Inhibitory Concentration) represent the concentration of the test substance at which 50% of the maximum channel activity is inhibited.
Human HEK293 cells over-expressing human IK are grown in culture medium (DMEM supplemented with 10% foetal bovine serum), in polystyrene culture flasks ([…]) in a humidified atmosphere of 5% CO2 in air, at 37° C. Cell confluence should be 80-90% on day of plating. Cells are rinsed with 4 mL of PBS (phosphate buffered saline) and incubated 2 min with 1 mL of Trypsin-EDTA. After addition of 25 mL of culture medium cells are re-suspended by trituration with a 25 mL pipette.
The cells are seeded at a density of ˜3×10^6 cells/mL (25 μL/well) in black-walled, clear bottom, 384-well plates pre-treated with 0.01 g/L poly-D-lysin (20 μL/well for ≧30 min). Plated cells were allowed to proliferate for 24 h before loading with dye.
BTC-AM ([…], Invitrogen) is added 25.5 μl DMSO. The BTC-AM stock solution (2 mM) is diluted to a final concentration of 2 μM in […] assay buffer (in mM: 140 Na^+-gluconate, 2.5 K^+-gluconate, 6 Ca2^+-gluconate, 1 Mg^2+ gluconate, 5 glucose, 10 HEPES, pH 7.3) containing 2 μM ouabain, 2 mM amaranth and 1 mM tartrazine.
The culture medium is aspirated from the wells, and 25 μl of the BTC-AM loading solution are added to each well. The cells are incubated at 37° C. for 60 min.
After the loading period, the Tl^+-sensitive BTC fluorescence signal is measured over time using a FLIPR.
• Temperature: Room temp. • First addition: 12 μl test or control compound after 15 sec at a rate of 30 μL/sec and starting height of 20 μL • Second addition: 12 μL stimulus buffer (Cl^− free assay buffer supplemented with 1 mM Tl2SO4, 5 μM A23187 as well as the quenchers amaranth (2 mM) and tartrazine (1 mM)) is added after an additional 3 minutes at a rate of 30 μL/sec and starting height of 30 μL • Reading intervals: First sequence—3 sec×5, 2 sec×24 and 5 sec×25 • Second sequence—1 sec×5, 2 sec×24 and 5 sec×36
Addition plates (compound plate and stimulus plate) are placed in positions 2 and 3, respectively. Cell plates are placed in position 1 and run using the “IK blocker (EtOH wash, two additions)” program. FLIPR will then take the appropriate measurements in accordance with the interval settings above. Fluorescence obtained after stimulation is corrected for the mean basal fluorescence (in Cl^− free assay buffer).
Full concentration/response curves are generated and IC50 values (“Inhibitory Concentration”, i.e. the concentration of the test substance at which 50% of the maximum channel activity is inhibited) are calculated. The responses are calculated based on peak values.

IC50	SMILES
510 nM	Cc1ccccc1-c1ccccc1-c1nnnn1-c1ccccc1F [Compound 19, 1-(2-Fluorophenyl)-5-[2-(2-methylphenyl)phenyl]-1H-1,2,3,4-tetrazole]
5900 nM	Oc1ccccc1-c1ccccc1-c1nnnn1-c1ccccc1F [Compound 2, 2-{2-[1-(2-Fluorophenyl)-1H-1,2,3,4-tetrazol-5-yl]phenyl}phenol]
890 nM	c1ccc(-c2ccccc2-c2nnnn2-c2ccccc2)cc1 [Compound 65, 1-Phenyl-5-(2-phenylphenyl)-1H-1,2,3,4-tetrazole]
30 nM	COCCOc1ccccc1-c1ccccc1-c1nnnn1-c1ccccc1F [Compound 4, 1-(2-Fluorophenyl)-5-{2-[2-(2-methoxyethoxyl)phenyl]phenyl}-1H-1,2,3,4-tetrazole]
